According to the supplement of paper PMC11451515:

Tested on: NOMO1
Experiment: cell viability relative to DMSO control; higher = less cytotoxic
Details: 48 h
Method in brief: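 Before seeding, each leukemia line was adapted for at least four passages in each medium. NOMO1 or SEM cells (500 cells/well) and P12-Ichikawa cells (1000 cells/well) went into 1536-well plates at 5 μl, then received library compounds in DMSO by pin dosing across 11 threefold concentrations, 47 μM to 0.79 nM. Readout was CellTiter-Glo One luminescence after 48 h at 37°C, and viability is given as a per-plate percentage of DMSO wells, with cell-free wells as background.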

[1] = HPLM + 10% dialyzed FBS, 0.000781 µM
[2] = HPLM + 10% dialyzed FBS, 0.00234 µM
[3] = HPLM + 10% dialyzed FBS, 0.00702 µM
[4] = HPLM + 10% dialyzed FBS, 0.0211 µM
[5] = HPLM + 10% dialyzed FBS, 0.0632 µM
[6] = HPLM + 10% dialyzed FBS, 0.19 µM
[7] = HPLM + 10% dialyzed FBS, 0.569 µM
[8] = HPLM + 10% dialyzed FBS, 1.71 µM
[9] = HPLM + 10% dialyzed FBS, 5.12 µM
[10] = HPLM + 10% dialyzed FBS, 15.4 µM
[11] = HPLM + 10% dialyzed FBS, 46.1 µM
[12] = RPMI 5 mM glucose + 10% FBS, 0.000781 µM
[13] = RPMI 5 mM glucose + 10% FBS, 0.00234 µM
[14] = RPMI 5 mM glucose + 10% FBS, 0.00702 µM
[15] = RPMI 5 mM glucose + 10% FBS, 0.0211 µM
[16] = RPMI 5 mM glucose + 10% FBS, 0.0632 µM
[17] = RPMI 5 mM glucose + 10% FBS, 0.19 µM
[18] = RPMI 5 mM glucose + 10% FBS, 0.569 µM
[19] = RPMI 5 mM glucose + 10% FBS, 1.71 µM
[20] = RPMI 5 mM glucose + 10% FBS, 5.12 µM
[21] = RPMI 5 mM glucose + 10% FBS, 15.4 µM
[22] = RPMI 5 mM glucose + 10% FBS, 46.1 µM
[23] = RPMI 5 mM glucose + 10% dialyzed FBS, 0.000781 µM
[24] = RPMI 5 mM glucose + 10% dialyzed FBS, 0.00234 µM
[25] = RPMI 5 mM glucose + 10% dialyzed FBS, 0.00702 µM
[26] = RPMI 5 mM glucose + 10% dialyzed FBS, 0.0211 µM
[27] = RPMI 5 mM glucose + 10% dialyzed FBS, 0.0632 µM
[28] = RPMI 5 mM glucose + 10% dialyzed FBS, 0.19 µM
[29] = RPMI 5 mM glucose + 10% dialyzed FBS, 0.569 µM
[30] = RPMI 5 mM glucose + 10% dialyzed FBS, 1.71 µM
[31] = RPMI 5 mM glucose + 10% dialyzed FBS, 5.12 µM
[32] = RPMI 5 mM glucose + 10% dialyzed FBS, 15.4 µM
[33] = RPMI 5 mM glucose + 10% dialyzed FBS, 46.1 µM

SMILES | cell viability [1] [%] | cell viability [2] [%] | cell viability [3] [%] | cell viability [4] [%] | cell viability [5] [%] | cell viability [6] [%] | cell viability [7] [%] | cell viability [8] [%] | cell viability [9] [%] | cell viability [10] [%] | cell viability [11] [%] | cell viability [12] [%] | cell viability [13] [%] | cell viability [14] [%] | cell viability [15] [%] | cell viability [16] [%] | cell viability [17] [%] | cell viability [18] [%] | cell viability [19] [%] | cell viability [20] [%] | cell viability [21] [%] | cell viability [22] [%] | cell viability [23] [%] | cell viability [24] [%] | cell viability [25] [%] | cell viability [26] [%] | cell viability [27] [%] | cell viability [28] [%] | cell viability [29] [%] | cell viability [30] [%] | cell viability [31] [%] | cell viability [32] [%] | cell viability [33] [%]
N[S+](=O)([O-])c1cccc2c1C(=O)c1cccc(O)c1C2=O | 105 | 115 | 112 | 105 | 119 | 106 | 107 | 85 | 91.6 | 78.7 | 4.98 | 110 | 101 | 103 | 98.5 | 115 | 107 | 91.9 | 94.9 | 88.2 | 97.1 | 3.99 | 97.6 | 104 | 97.3 | 103 | 102 | 107 | 108 | 94.9 | 94.3 | 82.9 | 4.93
C[C@]12CC[C@H]3[C@@H](CCC/4=C/C(=O)CC[C@]34C)[C@@H]1CC[C@@H]2O | 93.4 | 113 | 126 | 111 | 136 | 126 | 123 | 111 | 130 | 127 | 137 | 109 | 118 | 134 | 143 | 146 | 145 | 129 | 134 | 147 | 153 | 147 | 107 | 121 | 135 | 137 | 142 | 141 | 147 | 129 | 145 | 138 | 143
O=C(c1ccc(F)c(F)c1Nc1ccc(I)cc1F)N1CC(O)([C@@H]2CCCCN2)C1 | 96.3 | 91.9 | 97.4 | 108 | 90.9 | 70.1 | 56.4 | 41.8 | 15.1 | 13.3 | 14.3 | 91.4 | 99.9 | 98.2 | 93.4 | 92.5 | 74.1 | 61.8 | 29.1 | 8.07 | 7.33 | 5.28 | 89.4 | 99 | 93.9 | 102 | 100 | 69.7 | 58.6 | 44.1 | 10.1 | 10.2 | 11.6
CC[C@H](C)C(=O)O[C@H]1C[C@H](O)\C=C2\C=C/[C@H](C)[C@H](CC[C@@H](O)C[C@@H](O)CC(O)=O)[C@@H]12 | 123 | 116 | 118 | 119 | 125 | 123 | 110 | 101 | 103 | 104 | 84.1 | 114 | 111 | 118 | 106 | 117 | 126 | 116 | 116 | 104 | 105 | 102 | 105 | 110 | 117 | 104 | 101 | 110 | 112 | 101 | 103 | 107 | 99
COC1=CC=CC(=C1N)\C2=C\C(=O)C3=C(O2)C=CC=C3 |  |  |  |  |  |  |  |  |  |  |  | 120 | 121 | 119 | 117 | 143 | 125 | 143 | 124 | 126 | 121 | 116 |  |  |  |  |  |  |  |  |  |  | 
CC(/C=C/C(=O)NO)=C\[C@@H](C)C(=O)c1ccc(N(C)C)cc1 | 112 | 104 | 107 | 104 | 134 | 122 | 108 | 57 | 5.04 | 4.16 | 2.85 | 89.8 | 100 | 109 | 98.8 | 93.9 | 109 | 89.2 | 59.5 | 5.72 | 3.5 | 2.44 | 111 | 120 | 122 | 114 | 108 | 115 | 95.1 | 65 | 5.26 | 5 | 2.94
COC1=CC=C(C=C1O)C/2=C/C(=O)C3=C(O2)C=C(O)C=C3O | 93.3 | 108 | 108 | 108 | 114 | 100 | 95.3 | 98.4 | 94.4 | 93.9 | 110 | 96.4 | 86 | 82.8 | 87.4 | 94.5 | 93.7 | 96.8 | 88.2 | 95 | 105 | 102 | 91.3 | 90.5 | 85.5 | 100 | 105 | 89.8 | 83.6 | 89.5 | 82.5 | 92.5 | 98.2
CN1CCC[C@@H]1CCO[C@](C)(c1ccccc1)c1ccc(Cl)cc1 | 96 | 112 | 95.7 | 102 | 112 | 109 | 119 | 107 | 110 | 112 | 95.2 | 100 | 105 | 101 | 110 | 107 | 105 | 100 | 109 | 114 | 115 | 103 | 93.3 | 112 | 105 | 97.2 | 117 | 108 | 104 | 102 | 104 | 112 | 87.8
[O-]C(=O)C1=C(C(=C(Cl)C(=C1Cl)Cl)Cl)C/2=C/3\C=C(I)/C(=O)/C(=C3OC4=C2C=C(I)C(=C4I)[O-])I | 101 | 136 | 116 | 122 | 140 | 129 | 143 | 133 | 130 | 113 | 102 |  |  |  |  |  |  |  |  |  |  |  |  |  |  |  |  |  |  |  |  |  | 
NCCCCNCCCN | 110 | 101 | 119 | 112 | 109 | 95.3 | 116 | 121 | 105 | 67.1 | 26.7 | 108 | 99.6 | 98.2 | 104 | 99.4 | 104 | 94.8 | 99.1 | 105 | 103 | 27.7 | 107 | 104 | 111 | 107 | 107 | 105 | 110 | 115 | 119 | 109 | 35.4
Cc1cc(C(=O)N2CCN(c3cccc(Cl)c3)CC2)n(-c2ccccc2)n1 | 116 | 115 | 114 | 97.7 | 115 | 116 | 91.8 | 70.7 | 30.7 | 26.5 | 29.3 | 90.3 | 99.9 | 96.1 | 97.5 | 94.5 | 99.7 | 99.6 | 92.2 | 69.7 | 15.9 | 14.8 | 98 | 100 | 96.6 | 90.7 | 89.7 | 109 | 90.5 | 85.9 | 38.3 | 22 | 24.1
ClC1=CC\2=C(NC(=O)\C(=C2N[C@@H]3CN4CCC3CC4)C5=NC6=C([NH]5)C=CC=C6)C=C1 | 121 | 123 | 121 | 123 | 129 | 49.3 | 36.5 | 35.6 | 32.3 | 28.4 | 17.3 | 113 | 120 | 123 | 110 | 103 | 46.4 | 23.4 | 17.5 | 18 | 12.4 | 13.4 | 101 | 105 | 113 | 108 | 117 | 44 | 23.7 | 20.4 | 25.2 | 18.6 | 18.2
CN1c2ccccc2C(=O)N2CCc3c([nH]c4ccccc34)C21 (stereo not drawn) | 122 | 115 | 118 | 138 | 130 | 135 | 151 | 118 | 107 | 105 | 102 | 116 | 108 | 122 | 116 | 112 | 111 | 123 | 115 | 102 | 107 | 106 |  |  |  |  |  |  |  |  |  |  | 
ClC1=CC\2=C(OC3=C(C=CC=C3)\N=C2N4CCNCC4)C=C1 | 106 | 111 | 106 | 94.5 | 105 | 103 | 118 | 91.1 | 91.7 | 83.3 | 90.7 | 87 | 90.1 | 95.9 | 94.8 | 88.7 | 101 | 100 | 87.7 | 86.5 | 83.7 | 84 | 101 | 84 | 94.3 | 91.1 | 92.1 | 90.7 | 93.3 | 90.6 | 90.7 | 88.4 | 91.1
CC[C@]12\C=C/CN3CC[C@]4([C@@H](N(C)C5=CC(=C(C=C45)[C@]6(C[C@H]7C[C@H](CN(C7)CC8=C6[NH]C9=C8C=CC=C9)C(C)(F)F)C(=O)OC)OC)[C@](O)([C@@H]1OC(C)=O)C(=O)OC)[C@H]23 | 102 | 102 | 97.5 | 72.8 | 28.2 | 28.1 | 36 | 38.6 | 36.8 | 36.1 | 28.7 | 95 | 96.9 | 91.9 | 85.2 | 24.5 | 18.5 | 21.6 | 22.3 | 22.3 | 23.7 | 20.1 | 91.5 | 92.4 | 91.6 | 93.7 | 57.5 | 30.6 | 24.2 | 26.3 | 27.5 | 26.8 | 20.8
O=C(Nc1ncc(SCCN2CCCC2)s1)[C@]1(c2ccc([S+](=O)([O-])C3CC3)cc2)C[C@H]1C1CCCCC1 | 111 | 136 | 110 | 123 | 120 | 106 | 105 | 102 | 103 | 70.2 | 5.84 | 125 | 127 | 123 | 111 | 123 | 113 | 107 | 128 | 108 | 104 | 25.1 | 118 | 117 | 118 | 126 | 124 | 111 | 114 | 117 | 110 | 94.2 | 17.4
